Values of other authors as cited in patent publication US20070099863A1, “Compounds for the treatment of demyelinating and autoimmune diseases” (priority 2003, published 2007).
Counter-ions that a name gives are not always drawn.

How the values were obtained:
P2X4 = molecular target: T1, P2X4 (Homo sapiens, UniProt Q99571); conditions: P2X4 subtype; read-out: IC50 in relation to P2X4; cited from earlier work
T1 sequence (Q99571 1-388): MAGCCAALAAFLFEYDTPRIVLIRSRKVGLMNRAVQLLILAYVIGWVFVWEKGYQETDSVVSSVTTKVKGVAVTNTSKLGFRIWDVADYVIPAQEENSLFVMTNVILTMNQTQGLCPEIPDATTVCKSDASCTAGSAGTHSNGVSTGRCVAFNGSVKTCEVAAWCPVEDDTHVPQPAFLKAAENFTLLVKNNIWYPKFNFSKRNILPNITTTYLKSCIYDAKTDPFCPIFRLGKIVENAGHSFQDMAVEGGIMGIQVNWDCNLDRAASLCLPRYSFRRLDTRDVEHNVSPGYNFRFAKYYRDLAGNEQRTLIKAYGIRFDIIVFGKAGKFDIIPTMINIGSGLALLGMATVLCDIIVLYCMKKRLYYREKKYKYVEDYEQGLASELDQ

P2X7 = molecular target: T2, P2X7 (Homo sapiens, UniProt Q99572); conditions: P2X7 subtype; read-out: IC50 in relation to P2X7; cited from earlier work
T2 sequence (Q99572 1-595): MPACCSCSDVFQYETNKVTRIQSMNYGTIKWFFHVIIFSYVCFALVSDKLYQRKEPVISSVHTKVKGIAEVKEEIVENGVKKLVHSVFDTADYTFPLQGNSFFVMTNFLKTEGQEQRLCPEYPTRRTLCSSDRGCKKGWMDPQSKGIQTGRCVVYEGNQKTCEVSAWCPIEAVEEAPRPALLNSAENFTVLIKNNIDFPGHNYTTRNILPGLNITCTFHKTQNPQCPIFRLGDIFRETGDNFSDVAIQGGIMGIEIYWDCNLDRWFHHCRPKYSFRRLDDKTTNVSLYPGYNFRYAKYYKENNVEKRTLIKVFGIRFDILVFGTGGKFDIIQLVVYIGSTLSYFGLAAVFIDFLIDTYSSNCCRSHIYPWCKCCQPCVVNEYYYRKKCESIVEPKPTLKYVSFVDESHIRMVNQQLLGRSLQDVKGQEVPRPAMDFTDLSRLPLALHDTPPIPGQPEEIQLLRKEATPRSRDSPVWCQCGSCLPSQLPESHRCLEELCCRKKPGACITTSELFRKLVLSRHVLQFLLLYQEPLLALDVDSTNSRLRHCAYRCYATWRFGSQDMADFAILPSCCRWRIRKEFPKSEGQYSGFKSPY

P2X5 = P2X5 (Homo sapiens, UniProt Q93086); conditions: P2X5 subtype; read-out: IC50 in relation to P2X5; cited from earlier work
Sequence of P2X5 (Q93086 whole entry, species assumed): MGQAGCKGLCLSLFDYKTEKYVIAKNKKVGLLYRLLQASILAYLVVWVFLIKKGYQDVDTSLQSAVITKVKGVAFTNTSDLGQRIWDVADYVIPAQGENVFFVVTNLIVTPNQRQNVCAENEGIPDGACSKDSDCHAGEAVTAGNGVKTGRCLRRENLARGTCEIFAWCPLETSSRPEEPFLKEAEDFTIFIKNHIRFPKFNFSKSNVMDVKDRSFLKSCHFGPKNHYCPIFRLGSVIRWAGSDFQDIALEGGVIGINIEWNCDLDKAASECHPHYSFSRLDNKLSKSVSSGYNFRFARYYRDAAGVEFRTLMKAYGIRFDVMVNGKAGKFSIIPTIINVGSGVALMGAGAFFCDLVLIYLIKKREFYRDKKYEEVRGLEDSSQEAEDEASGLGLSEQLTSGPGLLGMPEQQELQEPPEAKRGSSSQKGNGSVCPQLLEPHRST

Compound	IC50 (P2X4)	IC50 (P2X7)	IC50 (P2X5)
CCOc1ccc(Nc2ccc(/C(=C3C=C/C(=[N+](/CC)Cc4cccc(S(=O)(=O)[O-])c4)C=C/3C)c3ccc(N(CC)Cc4cccc(S(=O)(=O)O)c4)cc3C)cc2)cc1 [BBG, Coomassie brilliant blue G]	> 10 µM	0.01 µM	
Cc1ccc(C(=O)Nc2ccc(S(=O)(=O)O)c3cc(S(=O)(=O)O)cc(S(=O)(=O)O)c23)cc1NC(=O)c1cccc(NC(=O)Nc2cccc(C(=O)Nc3cc(C(=O)Nc4ccc(S(=O)(=O)O)c5cc(S(=O)(=O)O)cc(S(=O)(=O)O)c45)ccc3C)c2)c1 [Suramin, hexasodium salt of 8,8′-[carbonylbis[imino-3,1-phenylenecarbonylimino(4-methyl-3,1-phenylene)carbonylimino]]bisnaphthalene-1,3,5-trisulphonic acid]	178 µM		4 µM
